For the compound `Cl.Nc1ccc2[nH]c3c(c2c1)CCc1cn[nH]c1-3`, the melting point is 237 to 241 °C. The value for `Cl.O=C(O)c1n[nH]c2c1CCc1c-2[nH]c2ccccc12` was over 260 °C; that for `O=[N+]([O-])c1ccc2[nH]c3c(c2c1)CCc1c[nH]nc1-3` [Example 1, 7-Nitro-2,4,5,10-tetrahydropyrazolo[3,4-a]carbazole] was over 260 °C. Then `O=C(O)c1ccc2[nH]c3c(c2c1)CCc1c[nH]nc1-3` [Example 2, 2,4,5,10-Tetrahydropyrazolo[3,4-a]carbazole-7-carboxylic acid], with over 260 °C; and `O=C(O)c1cccc2[nH]c3c(c12)CCc1c[nH]nc1-3` [Example 3, 2,4,5,10-Tetrahydropyrazolo[3,4-a]carbazole-6-carboxylic acid], with over 260 °C; and `O=C(O)c1ccc2c3c([nH]c2c1)-c1n[nH]cc1CC3` [Example 4, 2,4,5,10-Tetrahydropyrazolo[3,4-a]carbazole-8-carboxylic acid], with over 260 °C.

Regarding `CCOC(=O)c1[nH]nc2c1CCc1c-2[nH]c2ccccc12` [Example 5, Ethyl 2,4,5,10-tetrahydropyrazolo[3,4-a]carbazole-3-carboxylate], the melting point lay in the range of 224 to 226 °C.

As for `CC(C)CC(=O)Nc1ccc2[nH]c3c(c2c1)CCc1cn[nH]c1-3` [Example 7, 3-Methyl-N-(1,4,5,10-tetrahydropyrazolo[3,4-a]carbazol-7-yl)butanamide], the melting point was 182 to 185 °C.

`O=C(Nc1ccc2[nH]c3c(c2c1)CCc1cn[nH]c1-3)c1cccs1` [Example 8, N-(1,4,5,10-tetrahydropyrazolo[3,4-a]carbazol-7-yl) thiophene-2-carboxamide] returned a melting point of 176 to 180 °C. The value for `CC(C)CNC(=O)c1ccc2[nH]c3c(c2c1)CCc1cn[nH]c1-3` [Example 9, N-isobutyl-1,4,5,10-tetrahydropyrazolo[3,4-a]carbazole-7-carboxamide] was 186 to 190 °C; that for `CN1CCN(C(=O)c2ccc3[nH]c4c(c3c2)CCc2cn[nH]c2-4)CC1` [Example 10, 7-[(4-Methylpiperazin-1-yl)carbonyl]-1,4,5,10-tetrahydropyrazolo[3,4-a]carbazole] was 198 to 205 °C. Then `CCOC(=O)c1ccc2[nH]c3c(c2c1)CCc1cn[nH]c1-3` [Example 11, Ethyl 1,4,5,10-tetrahydropyrazolo[3,4-a]carbazole-7-carboxylate], with 214 to 216 °C; and `COC(=O)c1ccc2c3c([nH]c2c1)-c1[nH]ncc1CC3` [Example 12, Methyl 1,4,5,10-tetrahydropyrazolo[3,4-a]carbazole-8-carboxylate], with 240 to 243 °C.

Usually melting point stands for the temperature, or range, at which the solid turns liquid.

Values taken from patent US20060264493A1, “Tetracyclic pyrazole derivatives as kinase inhibitors, process for their preparation and pharmaceutical compositions comprising them” (priority 2003, published 2006).
